Reference: patent publication US12509424B2, “Compound and composition as PDGF receptor kinase inhibitor” (NIPPON SHINYAKU CO., LTD., priority 2019, dated 2025)

Legend:
PDGFR-β = PDGFR-β (Homo sapiens (Human), UniProt P09619); assay: PDGFR-β tyrosine kinase inhibitory action (HTRF KinEASE-TK); type: biochemical; conditions: PDGFR-β enzyme 1 ng/μL, 30° C. for 30 minutes; read-out: PDGF-β IC50
Description: (§1) 1. Preparation of Test Substance
This DMSO solution was diluted by 8 times with an assay buffer 1 (50 mM HEPES (pH 7.0), 0.02% NaN3, 0.01% Bovine Serum Albumin, 0.1 mM orthovanadate, 1 mM Dithiothreitol, 5 mM MgCl2, and 1 mM MnCl2) and further diluted by 5 times with an assay buffer 2 (50 mM HEPES (pH 7.0), 0.02% NaN3, 0.01% Bovine Serum Albumin, 0.1 mM orthovanadate, 1 mM Dithiothreitol, 5 mM MgCl2, 1 mM MnCl2, and 40 nM Supplemented Enzymatic Buffer (cisbio)).
2. Measurement of PDGFR-β Tyrosine Kinase Inhibitory Action
For the measurement, the HTRF KinEASE-TK kit from Cisbio Bioassays SAS was used. To a 384 well plate, the test substance solution was added at 4 μL each, then 2 μL of a PDGFR-β enzyme solution (final concentration of 1 ng/μL, Carna Biosciences, Inc.) and 4 μL of a substrate solution obtained by adding 0.6 μM ATP to TK substrate-3-biotin (cisbio) were added, and the solution was allowed to react at 30° C. for 30 minutes at a final concentration of the test substance being 0.01 to 10,000 nM.
Thereafter, 10 μL of a detection solution (cisbio) was added to each well and allowed to react at 30° C. for 1 hour. The fluorescence intensity was measured with a microplate reader (Spectra Max M5, Molecular device).
(§2) 3. Analysis of Measurement Results

[1] = system: pulmonary arterial smooth muscle cells; assay: Suppression of proliferation of pulmonary arterial smooth muscle cells (PDGF-BB stimulation, BrdU); type: cell-based; conditions: PASMC, 24 h; healthy human derived pulmonary arterial smooth muscle cells; human PDGF-BB 10 ng/mL stimulation; BrdU uptake after 1 day; test substance final concentration 3 to 10,000 nM; read-out: Human normal PASMC proliferation suppression (PDGF stimulation_IC50)
Description: as §1
Furthermore, it was diluted by 50 times with distilled water.
2. Measurement of Suppression Action Against Proliferation of Pulmonary Arterial Smooth Muscle Cells
The day after healthy human derived pulmonary arterial smooth muscle cells were seeded onto a 96 well plate using a smooth muscle cell proliferation medium, the proliferation medium was replaced with a 0.1% FBS medium, and the cells were cultured for an additional day. A test substance solution was diluted by 10 times with a medium containing BrdU and human PDGF-BB (final concentration of 10 ng/mL, Sigma-Aldrich) and added to cells in equal amounts so as to reach a final concentration of 3 to 10,000 nM. Also, to the human PDGF-BB negative control, BrdU and 0.1% DMSO solution were added. After culturing for 1 day, the amount of BrdU taken up by the proliferating cells was measured using an anti-BrdU antibody.
as §2

PDGFR-β, sequence (P09619 33-1106): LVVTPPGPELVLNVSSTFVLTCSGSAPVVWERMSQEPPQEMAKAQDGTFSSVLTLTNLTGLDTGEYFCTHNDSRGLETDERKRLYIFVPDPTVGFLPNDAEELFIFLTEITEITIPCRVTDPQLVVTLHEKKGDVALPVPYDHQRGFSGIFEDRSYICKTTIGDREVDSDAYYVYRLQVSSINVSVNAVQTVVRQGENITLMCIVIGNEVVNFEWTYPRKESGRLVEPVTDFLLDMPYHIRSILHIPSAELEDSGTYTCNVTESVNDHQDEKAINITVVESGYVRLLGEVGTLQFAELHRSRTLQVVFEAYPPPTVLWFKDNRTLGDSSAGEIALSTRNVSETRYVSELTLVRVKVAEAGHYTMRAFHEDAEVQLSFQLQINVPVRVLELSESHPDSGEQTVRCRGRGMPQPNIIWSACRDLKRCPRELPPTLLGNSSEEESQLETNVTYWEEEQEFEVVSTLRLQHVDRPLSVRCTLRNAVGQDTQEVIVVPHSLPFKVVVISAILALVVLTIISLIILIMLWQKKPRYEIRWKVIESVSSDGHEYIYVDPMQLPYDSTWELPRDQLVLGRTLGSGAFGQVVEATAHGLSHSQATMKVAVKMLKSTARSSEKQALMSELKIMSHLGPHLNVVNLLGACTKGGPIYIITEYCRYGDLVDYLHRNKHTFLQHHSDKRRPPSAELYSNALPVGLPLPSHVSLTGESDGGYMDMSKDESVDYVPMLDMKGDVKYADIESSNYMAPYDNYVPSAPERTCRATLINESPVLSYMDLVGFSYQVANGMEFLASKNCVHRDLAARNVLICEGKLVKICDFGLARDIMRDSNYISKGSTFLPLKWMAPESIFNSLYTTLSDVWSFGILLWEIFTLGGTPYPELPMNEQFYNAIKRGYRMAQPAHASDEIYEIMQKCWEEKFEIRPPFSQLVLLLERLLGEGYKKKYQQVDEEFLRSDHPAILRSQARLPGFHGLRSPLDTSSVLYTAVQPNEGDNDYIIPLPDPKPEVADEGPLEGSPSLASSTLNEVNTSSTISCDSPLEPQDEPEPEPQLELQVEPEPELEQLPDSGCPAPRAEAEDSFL

SMILES	IC50 (PDGFR-β)	IC50 [1]
COc1cncc(C(=O)Nc2cc(C(=O)N[C@H]3CCCC[C@@H]3O)ccc2C)c1 [Example 49, N-(5-{[(1S,2S)-2-hydroxycyclohexyl]carbamoyl}-2-methylphenyl)-5-methoxypyridine-3-carboxamide]	120 nM	250 nM
CCOc1cncc(C(=O)Nc2cc(C(=O)N[C@H]3CCCC[C@@H]3O)ccc2C)c1 [Example 50, 5-ethoxy-N-(5-{[(1S,2S)-2-hydroxycyclohexyl]carbamoyl}-2-methylphenyl)pyridine-3-carboxamide]	61 nM	270 nM
Cc1ccc(C(=O)N[C@H]2CCCC[C@@H]2O)cc1NC(=O)c1cncc(OCC2(C)CC2)c1 [Example 53, N-(5-{[(1S,2S)-2-hydroxycyclohexyl]carbamoyl}-2-methylphenyl)-5-[(1-methylcyclopropyl)methoxy]pyridine-3-carboxamide]	12 nM	71 nM
Cc1ccc(C(=O)N[C@H]2CCCC[C@@H]2O)cc1NC(=O)c1cncc(OCC2CC(F)(F)C2)c1 [Example 54, 5-[(3,3-difluorocyclobutyl)methoxy]-N-(5-{[(1S,2S)-2-hydroxycyclohexyl]carbamoyl}-2-methylphenyl)pyridine-3-carboxamide]	40 nM	340 nM
O=C(N[C@H]1CCCC[C@@H]1O)c1ccc(Cl)c(NC(=O)c2cnc(CC3CC3)s2)c1 [Example 55, N-(2-chloro-5-{[(1S,2S)-2-hydroxycyclohexyl]carbamoyl}phenyl)-2-(cyclopropylmethyl)-1,3-thiazole-5-carboxamide]	83 nM	69 nM
O=C(Nc1cc(C(=O)N[C@H]2CCCC[C@@H]2O)ccc1F)c1cncc(OCC2CC2)c1 [Example 56, 5-(cyclopropylmethoxy)-N-(2-fluoro-5-{[(1S,2S)-2-hydroxycyclohexyl]carbamoyl}phenyl)pyridine-3-carboxamide]	120 nM	240 nM
Cc1ccc(C(=O)N[C@H]2CCCC[C@@H]2O)cc1C#Cc1cncc(NCC2CC2)n1 [Example 72, 3-({6-[(cyclopropylmethyl)amino]pyrazin-2-yl}ethynyl)-N-[(1S,2S)-2-hydroxycyclohexyl]-4-methylbenzamide]	10 nM	70 nM
Cc1ncc(C(=O)N[C@H]2CCCC[C@@H]2O)cc1C#Cc1cncc(C2CC2)c1 [Example 73, 5-[(5-cyclopropylpyridin-3-yl)ethynyl]-N-[(1S,2S)-2-hydroxycyclohexyl]-6-methylpyridine-3-carboxamide]	220 nM	80 nM
Cc1ccc(C(=O)N[C@H]2CCCC[C@@H]2O)cc1C#Cc1cncc(Br)n1 [Example 74, 3-[(6-bromopyrazin-2-yl)ethynyl]-N-[(1S,2S)-2-hydroxycyclohexyl]-4-methylbenzamide]	180 nM	18 nM
Cc1ccc(C(=O)N[C@@H](CO)[C@@H](O)c2ccccc2)cc1C#Cc1cncc(Br)c1 [Example 76, 3-[(5-bromopyridin-3-yl)ethynyl]-N-[(1S,2S)-1,3-dihydroxy-1-phenylpropan-2-yl]-4-methylbenzamide]	49 nM	27 nM
Cc1ccc(C(=O)N[C@@H](CO)[C@@H](O)c2ccccc2)cc1N1CCc2nc(N)ncc2C1 [Example 83, 3-(2-amino-7,8-dihydropyrido[4,3-d]pyrimidin-6(5H)-yl)-N-[(1S,2S)-1,3-dihydroxy-1-phenylpropan-2-yl]-4-methylbenzamide]	5 nM	48 nM
CC(=O)Nc1ccc(CNc2cc(C(=O)N[C@H]3CCCC[C@@H]3O)ccc2C)cn1 [Example 116, 3-{[(6-acetamidopyridin-3-yl)methyl]amino}-N-[(1S,2S)-2-hydroxycyclohexyl]-4-methylbenzamide]		120 nM
Cc1ccc(C(=O)N[C@H]2CCCC[C@@H]2O)cc1CN(C)c1cncc(-c2ccccc2)c1 [Example 175, N-[(1S,2S)-2-hydroxycyclohexyl]-4-methyl-3-{[methyl(5-phenylpyridin-3-yl)amino]methyl}benzamide]	24 nM	
CCN(Cc1cc(C(=O)N[C@H]2CCCC[C@@H]2O)ccc1C)c1cncc(-c2ccccc2)c1 [Example 176, 3-{[ethyl(5-phenylpyridin-3-yl)amino]methyl}-N-[(1S,2S)-2-hydroxycyclohexyl]-4-methylbenzamide]	50 nM	

Continued, in another order:

IC50 (PDGFR-β)	SMILES	IC50 [1]
61 nM	Cc1ccc(C(=O)N[C@H]2CCCC[C@@H]2O)cc1NC(=O)c1cncc(Oc2ccccn2)c1 [Example 51, N-(5-{[(1S,2S)-2-hydroxycyclohexyl]carbamoyl}-2-methylphenyl)-5-[(pyridin-2-yl)oxy]pyridine-3-carboxamide]	180 nM
77 nM	Cc1ccc(C(=O)N[C@H]2CCCC[C@@H]2O)cc1NC(=O)c1cncc(Oc2ncccn2)c1 [Example 52, N-(5-{[(1S,2S)-2-hydroxycyclohexyl]carbamoyl}-2-methylphenyl)-5-[(pyrimidin-2-yl)oxy]pyridine-3-carboxamide]	420 nM
27 nM	CNc1ncc2c(Nc3cc(C(=O)N[C@H]4CCCC[C@@H]4O)ccc3C)cccc2n1 [Example 82, N-[(1S,2S)-2-hydroxycyclohexyl]-4-methyl-3-{[2-(methylamino)quinazolin-5-yl]amino}benzamide]	72 nM
46 nM	Cc1ccc(C(=O)N[C@H]2CCCC[C@@H]2O)cc1NCc1cnc2[nH]ncc2c1 [Example 109, N-[(1S,2S)-2-hydroxycyclohexyl]-4-methyl-3-{[(1H-pyrazolo[3,4-b]pyridin-5-yl)methyl]amino}benzamide]	170 nM
350 nM	Cc1ccc(C(=O)N[C@H]2CCCC[C@@H]2O)cc1NCc1cnc2cccnn12 [Example 110, N-[(1S,2S)-2-hydroxycyclohexyl]-3-{[(imidazo[1,2-b]pyridazin-3-yl)methyl]amino}-4-methylbenzamide]	240 nM
150 nM	Cc1ccc(C(=O)N[C@H]2CCCC[C@@H]2O)cc1NCc1cncc(-c2cn3ccnc3cn2)c1 [Example 111, N-[(1S,2S)-2-hydroxycyclohexyl]-3-({[5-(imidazo[1,2-a]pyrazin-6-yl)pyridin-3-yl]methyl}amino)-4-methylbenzamide]	380 nM
79 nM	Cc1ccc(C(=O)N[C@H]2CCCC[C@@H]2O)cc1NCc1ccc(NCC2CC2)nc1 [Example 117, 3-[({6-[(cyclopropylmethyl)amino]pyridin-3-yl}methyl)amino]-N-[(1S,2S)-2-hydroxycyclohexyl]-4-methylbenzamide]	230 nM
390 nM	Cc1ccc(C(=O)N[C@H]2CCCC[C@@H]2O)cc1NCc1ccc(-c2ccccn2)nc1 [Example 118, 3-{[([2,2′-bipyridin]-5-yl)methyl]amino}-N-[(1S,2S)-2-hydroxycyclohexyl]-4-methylbenzamide]	140 nM
330 nM	Cc1ccc(C(=O)N[C@H]2CCCC[C@@H]2O)cc1NCc1cnn2cccnc12 [Example 119, N-[(1S,2S)-2-hydroxycyclohexyl]-4-methyl-3-{[(pyrazolo[1,5-a]pyrimidin-3-yl)methyl]amino}benzamide]	93 nM
190 nM	Cc1ccc(C(=O)N[C@H]2CCCC[C@@H]2O)cc1OC(C)c1cncc(-c2ccccc2)c1 (stereo partly drawn) [Example 172, N-[(1S,2S)-2-hydroxycyclohexyl]-4-methyl-3-[1-(5-phenylpyridin-3-yl)ethoxy]benzamide]	
